Measured values taken from US20250049034A1, “Composition” (Syngenta Crop Protection AG, priority 2021, published 2025).

Assay: Chemical stability of the active ingredients in the composition
Assay type: physicochemical
Details: in Composition 1
Protocol: The stability of the active ingredients per se were also measured under a wide variation of temperature conditions.

| SMILES | active ingredient content (2 wks@ 54° C.) [% wt.] | active ingredient content (2 wks@ −18° C.) [% wt.] | active ingredient content (Initial) [% wt.] |
| --- | --- | --- | --- |
| CSc1nnc(C(C)(C)C)c(=O)n1N [Metribuzin] | 7.1 | 7.1 | 7.2 |
| CCOc1nc(F)cc2nc(S(=O)(=O)Nc3c(Cl)cccc3C(=O)OC)nn12 [Cloransulam-methyl] | 0.70 | 0.76 | 0.77 |
| CCc1cccc(C)c1N(C(=O)CCl)C(C)COC (stereo not drawn) [S-metalachlor, S-metolachlor] | 38.4 | 38.2 | 38.5 |
